In ChEMBL document CHEMBL6182903, “Synthetic approaches and clinical application of KRAS inhibitors for cancer therapy” (Eur J Med Chem, 2025):
One block for each compound: values may come before it.

Legend:
[1] = test system: BaF3; assay: Cytotoxicity against mouse BaF3 cells harboring KRAS G12R mutant assessed as reduction in cells growth incubated for 72 hrs by Celltiter-Glo luminescence-based assay; type: functional, cell-based; conditions: BaF3, 72 h
[2] = target: T1, GTPase KRas (Homo sapiens, UniProt P01116, G12S); assay: Inhibition of KRAS G12S mutant in human A549 cells assessed as reduction in ERK phosphorylation; type: cell-based
[3] = target: T1, GTPase KRas; assay: Binding affinity to human recombinant GDP-bound KRAS G12S mutant (1 to 169 residues) assessed as inhibition constant
[4] = PROTAC activity at CRBN/KRAS G12C mutant in human MIA PaCa-2 cells assessed as induction of KRAS G12C degradation; type: cell-based
[5] = target: von Hippel-Lindau disease tumor suppressor/GTPase KRas (Homo sapiens, UniProt P01116+P40337, G12C); assay: PROTAC activity at VHL/KRAS G12C mutant in human MIA PaCa-2 cells assessed as induction of KRAS G12C degradation; type: cell-based

SMILES: CC(=O)CC(=O)N1[C@@H]2CC[C@H]1CN(c1nc(OCC34CCCN3CCC4)nc3c(F)c(-c4cccc5cccc(Cl)c45)ncc13)C2
- IC50 [1]: < 100 µM

- IC50 [2]: 2.4 µM
- Ki [3]: 26 µM
SMILES: O=C1O[C@H]2CN(c3nc(OCC45CCCN4CCC5)nc4c3CCN(c3cccc5cccc(Cl)c35)C4)CC[C@@H]12

SMILES: C=CC(=O)N1CCN(c2nc(NCCCN3CCN(CCCNc4cccc5c4C(=O)N(C4CCC(=O)NC4=O)C5=O)CC3)nc3c(F)c(-c4cc(O)cc5ccccc45)c(Cl)cc23)CC1 (stereo not given)
- DC50 [4]: 3.2 µM

SMILES: C=C(F)C(=O)N1CCN(c2nc(OC[C@@H]3CCCN3CCCOCCC(=O)N[C@H](C(=O)N3C[C@H](O)C[C@H]3C(=O)NCc3ccc(-c4scnc4C)cc3)C(C)(C)C)nc3c2CCN(c2cccc4cccc(Cl)c24)C3)C[C@@H]1CC#N
- DC50 [5]: 0.12 µM
